Results on 42 compounds are retold here after patent US11241013B2, “Benzimidazole compounds as agricultural chemicals” (REDAG CROP PROTECTION LTD, priority 2017, dated 2022).

Where only a bound is given, the exact number is not on record here.

In one test the test system is Pythium ultimum. The experiment in a line: Amended agar assay. Format: cell-based. As to conditions: Globisporangium ultimum, amended PDA agar, % reduction in colony growth vs control plate, 18° C. The method, then:
Testing was carried out on potato dextrose agar (PDA) amended with each compound at a test concentration of typically 20 ppm or 2 ppm. Amended agar was poured into three replicate 9 cm petri dishes. Each replicate dish was inoculated in the centre with a 5 mm agar plug taken from the leading edge of a culture aged between 2 and 7 days old; the age of the culture was dependant on the growth rate of the pathogen being tested. The test pathogens were Pythium ultimum and Phytophthora cinnamomi. Plates were incubated at 18° C. and the diameter of each colony measured before growth on the fastest growing plate reached the plate edge. This varied between 2 and 7 days depending on the growth rate of test pathogens. The % reduction in colony growth compared to the control plate was calculated for each pathogen. The results are provided in Table 1, in which D represents no control detected at this concentration; C represents up to 50% control; B from 50 to 99% control; and A represents a control of greater than 99%, i.e. no detectable colony growth.
Alternatively, or in addition, the same assay was conducted at descending test concentrations with 5-fold dilutions typically down to 0.032 ppm though sometimes as low as 0.00026 ppm, and an EC50 (the concentration at which 50% control would be achieved) was determined. The results are provided in Table 1 in which G represents no control detected at 20 ppm, F represents an EC50 of ≥20 ppm and E represents an EC50 of less than 20 ppm.

A further test deals with Phytophthora cactorum. Description: 96 well plate test. Format: cell-based. As to conditions: 96 well plate assay, agar amended to 20, 2, 0.2 and 0.02 ppm, assessed after 2 to 3 days, read-out: EC50 Phytophthora spp. (Phytophthora cactorum). The method, then:
Compounds were screened in 96 well plates with 10 compounds per plate. Each compound was screened using agar amended to 20, 2, 0.2 and 0.02 ppm, with proline at 50 and 10 ppm and 0.2% DMSO used as controls. Each test concentration and standard was replicated twice on a plate. Compounds were screened against Phytophthora cactorum. The agar used in the test is a 1% potato dextrose agar. 1000 spores/mL agar were added to the appropriate agar. A ×10 stock solution in 2% DMSO was produced for each dose i.e. 200, 20, 2 and 0.2 ppm, and 10 μl of this added to the appropriate wells on the plate. An equivalent amount of 2% DMSO and proline stock at 500 and 100 ppm were added for the controls. To each well 90 μl of the appropriate agar spore suspension was added to give the required final well concentrations. Plates were incubated at room temperature (18° C.) and assessed after 2 to 3 days. The amount of pathogen growth in each well was compared to the DMSO controls and an EC50 concentration was calculated. The results are provided in Table 1 in which H represents no control detected at 20 ppm, G represents no control detected at 2 ppm (where the highest test concentration in the assay was 2 ppm), F represents an EC50 of ≥20 ppm, E represents an EC50 of less than 20 ppm.

Consider `Cc1cccnc1COc1nc2ccccc2n1-c1nnnn1C` [Example 3], for which, in the test with Pythium ultimum, the inhibition of growth at 2 ppm lay in the range of 50 to 99% and the inhibition of growth at 20 ppm was more than 99%. Besides, in the test with Phytophthora cactorum, the EC50 was not below 20 µg/mL.
The corresponding values for `COc1ccnc(COc2nc3ccccc3n2-c2nnnn2C)c1` [Example 4] are more than 99%, more than 99% and less than 20 µg/mL.
As to `Cc1ccc(COc2nc3ccccc3n2-c2nnnn2C)nc1` [Example 6], in the test on Pythium ultimum, the inhibition of growth at 2 ppm was more than 99% and the inhibition of growth at 20 ppm is more than 99%. In addition, the EC50 with Phytophthora cactorum is not below 20 µg/mL.
Take `Cn1nnnc1-n1c(OCc2ccncn2)nc2ccccc21` [Example 7]: the inhibition of growth at 2 ppm in the test on Pythium ultimum is more than 99%. In addition, the EC50 in the test on Phytophthora cactorum is less than 20 µg/mL.
On to `Clc1cncnc1-n1c(OCc2ccccn2)nc2ccccc21` [Example 8], for which the inhibition of growth at 2 ppm with Pythium ultimum fell in the range of 50 to 99%. The EC50 in the test on Phytophthora cactorum is not below 20 µg/mL.
For `COCCCOc1ccnc(COc2nc3ccccc3n2-c2ncncc2Cl)c1C` [Example 10], in that order: 50 to 99% and not below 20 µg/mL.
In the test with Pythium ultimum, `Cc1ccnc(COc2nc3ccccc3n2-c2nnnn2C)c1` [Example 11] returned an inhibition of growth at 2 ppm of more than 99% and an inhibition of growth at 20 ppm of more than 99%. Further, the EC50 in the test with Phytophthora cactorum is less than 20 µg/mL.
In the test on Pythium ultimum, `COc1c(C)cnc(COc2nc3ccccc3n2-c2nnnn2C)c1C` [Example 12] displayed an inhibition of growth at 2 ppm of more than 99% and an inhibition of growth at 20 ppm of more than 99%. Further, the EC50 in the test with Phytophthora cactorum was less than 20 µg/mL.
In the test on Pythium ultimum, `COc1ccnc(COc2nc3ccccc3n2-c2nnnn2C)c1OC` [Example 13] displayed an inhibition of growth at 2 ppm of 50 to 99% and an inhibition of growth at 20 ppm of more than 99%. The EC50 with Phytophthora cactorum was less than 20 µg/mL.
In the test with Pythium ultimum, `Cc1c(OCC(F)(F)F)ccnc1COc1nc2ccccc2n1-c1nnnn1C` [Example 14] yielded an inhibition of growth at 2 ppm of more than 99% and an inhibition of growth at 20 ppm of more than 99%. Also, the EC50 with Phytophthora cactorum was less than 20 µg/mL.
In the test on Pythium ultimum, `Cn1nnnc1-n1c(OCc2nccs2)nc2ccccc21` [Example 16] showed an inhibition of growth at 2 ppm of less than 50%. For the same compound, the EC50 with Phytophthora cactorum is not below 20 µg/mL.
The corresponding values for `Cn1nnnc1-n1c(OCc2cccc(Br)n2)nc2ccccc21` [Example 17, 2-((6-bromopyridin-2-yl)methoxy)-1-(1-methyl-1H-tetrazol-5-yl)-1H-benzo[d]imidazole] are less than 50% and not below 20 µg/mL.
The corresponding values for `COc1ccnc(COc2nc3ccccc3n2-c2ncncc2Cl)c1` [Example 22] are 50 to 99% and not below 20 µg/mL.
On to `Clc1cncnc1-n1c(OCc2nccs2)nc2ccccc21` [Example 23], for which, in the test with Pythium ultimum, the inhibition of growth at 2 ppm lay in the range of 50 to 99%. The EC50 with Phytophthora cactorum was not below 20 µg/mL.
For `COc1c(C)cnc(COc2nc3ccccc3n2-c2ncncc2Cl)c1C` [Example 24], in that order: 50 to 99% and less than 20 µg/mL.
The corresponding values for `Cn1nnnc1-n1c(OCc2ccccn2)nc2c(Cl)cccc21` [Example 30] are more than 99% and less than 20 µg/mL.
`Cn1nnnc1-n1c(OCc2cccc(NCc3ccccc3)n2)nc2ccccc21` [Example 35, N-Benzyl-6-(((1-(1-methyl-1H-tetrazol-5-yl)-1H-benzo[d]imidazol-2-yl)oxy)methyl)pyridin-2-amine] came in with an inhibition of growth at 2 ppm with Pythium ultimum of more than 99%. The EC50 with Phytophthora cactorum was less than 20 µg/mL.
The corresponding values for `CCNc1cccc(COc2nc3ccccc3n2-c2nnnn2C)n1` [Example 36] are more than 99% and less than 20 µg/mL.
For `CC(C)CCNc1cccc(COc2nc3ccccc3n2-c2nnnn2C)n1` [Example 37], in that order: more than 99% and less than 20 µg/mL.
The corresponding values for `Cn1nnnc1-n1c(OCc2cccc(NCCCc3ccccc3)n2)nc2ccccc21` [Example 38] are more than 99% and less than 20 µg/mL.
Take `Cn1nnnc1-n1c(OCc2cccc(NCCc3ccccc3)n2)nc2ccccc21` [Example 39]: the inhibition of growth at 2 ppm in the test with Pythium ultimum is more than 99%. Moreover, in the test on Phytophthora cactorum, the EC50 is less than 20 µg/mL.
For `Cn1nnnc1-n1c(OCc2cccc(NCc3ccccn3)n2)nc2ccccc21` [Example 40], the inhibition of growth at 2 ppm in the test on Pythium ultimum was more than 99%. Besides, the EC50 in the test with Phytophthora cactorum is less than 20 µg/mL.
The corresponding values for `CCCNc1cccc(COc2nc3ccccc3n2-c2nnnn2C)n1` [Example 42] are more than 99% and less than 20 µg/mL.
The corresponding values for `CCCCNc1cccc(COc2nc3ccccc3n2-c2nnnn2C)n1` [Example 43] are more than 99% and less than 20 µg/mL.
Turning to `Cn1nnnc1-n1c(OCc2cccc(NCc3ccco3)n2)nc2ccccc21` [Example 44], the inhibition of growth at 2 ppm with Pythium ultimum was more than 99%. In addition, in the test on Phytophthora cactorum, the concentration for a half-maximal effect (EC50) is less than 20 µg/mL.
In turn, `Cn1ccc(CNc2cccc(COc3nc4ccccc4n3-c3nnnn3C)n2)n1` [Example 45] showed an inhibition of growth at 2 ppm in the test with Pythium ultimum of more than 99%. Also, in the test with Phytophthora cactorum, the EC50 is less than 20 µg/mL.
For `Cn1nnnc1-n1c(OCc2cccc(NCC3CC3)n2)nc2ccccc21` [Example 47], in that order: more than 99% and less than 20 µg/mL.
For `CNc1cccc(COc2nc3ccccc3n2-c2nnnn2C)n1` [Example 48, N-Methyl-6-(((1-(1-methyl-1H-tetrazol-5-yl)-1H-benzo[d]imidazol-2-yl)oxy)methyl)pyridin-2-amine], in that order: more than 99% and less than 20 µg/mL.
As to `CC(C)Nc1cccc(COc2nc3ccccc3n2-c2nnnn2C)n1` [Example 50, N-Isopropyl-6-(((1-(1-methyl-1H-tetrazol-5-yl)-1H-benzo[d]imidazol-2-yl)oxy)methyl)pyridin-2-amine], in the test on Pythium ultimum, the inhibition of growth at 2 ppm was more than 99%. Besides, the EC50 in the test with Phytophthora cactorum was less than 20 µg/mL.
For `CC(C)CCCNc1cccc(COc2nc3ccccc3n2-c2nnnn2C)n1` [Example 51], in that order: more than 99% and less than 20 µg/mL.
In turn, `CSc1ccnc(COc2nc3ccccc3n2-c2nnnn2C)c1` [Example 55] yielded an inhibition of growth at 2 ppm in the test with Pythium ultimum of more than 99%. Also, the EC50 in the test on Phytophthora cactorum was less than 20 µg/mL.
The corresponding values for `COc1ccc(COc2nc3ccccc3n2-c2nnnn2C)nc1` [Example 56] are less than 50% and not below 20 µg/mL.
The compound `Cn1nnnc1-n1c(OCc2cccc(N)n2)nc2c(Cl)cccc21` [Example 59] displayed an inhibition of growth at 2 ppm in the test with Pythium ultimum of more than 99%. Besides, in the test on Phytophthora cactorum, the EC50 was less than 20 µg/mL.
For `Cc1c(OC(F)(F)C(F)(F)F)ccnc1COc1nc2c(Cl)cccc2n1-c1nnnn1C` [Example 60], in that order: more than 99% and less than 20 µg/mL.
For `COc1ccnc(COc2nc3c(Cl)cccc3n2-c2nnnn2C)c1` [Example 61], in that order: more than 99% and less than 20 µg/mL.
The compound `COCCCOc1ccnc(COc2nc3c(Cl)cccc3n2-c2nnnn2C)c1C` [Example 62] yielded an inhibition of growth at 2 ppm in the test with Pythium ultimum of more than 99%. Also, in the test with Phytophthora cactorum, the EC50 is less than 20 µg/mL.
For `CC(C)CCCNc1cccc(COc2nc3c(Cl)cccc3n2-c2nnnn2C)n1` [Example 63], the inhibition of growth at 2 ppm in the test on Pythium ultimum was more than 99%. Further, the EC50 in the test with Phytophthora cactorum was less than 20 µg/mL.
The corresponding values for `Cn1nnnc1-n1c(OCc2nc3ccccc3n2C)nc2ccccc21` [Example 64] are more than 99% and less than 20 µg/mL.
Regarding `Cn1nnnc1-n1c(OCc2ccc3ccccc3n2)nc2ccccc21` [Example 65], in the test with Pythium ultimum, the inhibition of growth at 2 ppm was in the range of 50 to 99%. Further, the EC50 in the test on Phytophthora cactorum was not below 20 µg/mL.
As for `Cn1nnnc1-n1c(OCc2nc3ccccc3n2C)nc2c(Cl)cccc21` [Example 66], the inhibition of growth at 2 ppm in the test on Pythium ultimum was more than 99%. For the same compound, the EC50 in the test on Phytophthora cactorum is less than 20 µg/mL.
Turning to `Cn1nnnc1-n1c(OCc2cc([N+](=O)[O-])ccn2)nc2c(Cl)cccc21` [Example 69], the inhibition of growth at 2 ppm in the test on Pythium ultimum fell in the range of 50 to 99%. The EC50 with Phytophthora cactorum was not below 20 µg/mL.
On to `Cn1nnnc1-n1c(OCc2nc3ccccc3s2)nc2c(Cl)cccc21` [Example 70], for which the inhibition of growth at 2 ppm in the test on Pythium ultimum was more than 99%. Further, in the test with Phytophthora cactorum, the EC50 is less than 20 µg/mL.
